According to ChEMBL document CHEMBL5131434, “Design and synthesis of novel orexin 2 receptor agonists based on naphthalene skeleton” (Bioorg Med Chem Lett, 2022):

Experiments:
[1] = target: T1, Orexin/Hypocretin receptor type 1 (Homo sapiens, UniProt O43613); experiment: Agonist activity at OX1R (unknown origin) expressed in CHO cells by cell-based calcium assay; format: functional
T1 sequence (O43613 whole entry): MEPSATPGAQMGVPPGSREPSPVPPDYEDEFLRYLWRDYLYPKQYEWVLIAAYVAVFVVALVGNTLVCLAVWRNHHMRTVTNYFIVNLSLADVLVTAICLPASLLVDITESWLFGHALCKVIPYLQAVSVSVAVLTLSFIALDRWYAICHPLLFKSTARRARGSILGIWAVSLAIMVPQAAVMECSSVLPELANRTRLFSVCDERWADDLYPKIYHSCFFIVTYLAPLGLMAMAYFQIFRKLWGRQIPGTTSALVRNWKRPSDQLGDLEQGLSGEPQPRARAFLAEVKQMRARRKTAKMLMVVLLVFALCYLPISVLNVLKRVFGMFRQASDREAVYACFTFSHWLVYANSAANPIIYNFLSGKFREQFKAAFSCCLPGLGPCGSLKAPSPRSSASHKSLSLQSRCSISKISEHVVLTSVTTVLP

[2] = target: T2, Orexin receptor type 2 (Homo sapiens) (UniProt O43614); experiment: Agonist activity at OX2R (unknown origin) expressed in CHO cells at 10 uM by cell-based calcium assay relative to orexin A; format: functional
T2 sequence (whole entry): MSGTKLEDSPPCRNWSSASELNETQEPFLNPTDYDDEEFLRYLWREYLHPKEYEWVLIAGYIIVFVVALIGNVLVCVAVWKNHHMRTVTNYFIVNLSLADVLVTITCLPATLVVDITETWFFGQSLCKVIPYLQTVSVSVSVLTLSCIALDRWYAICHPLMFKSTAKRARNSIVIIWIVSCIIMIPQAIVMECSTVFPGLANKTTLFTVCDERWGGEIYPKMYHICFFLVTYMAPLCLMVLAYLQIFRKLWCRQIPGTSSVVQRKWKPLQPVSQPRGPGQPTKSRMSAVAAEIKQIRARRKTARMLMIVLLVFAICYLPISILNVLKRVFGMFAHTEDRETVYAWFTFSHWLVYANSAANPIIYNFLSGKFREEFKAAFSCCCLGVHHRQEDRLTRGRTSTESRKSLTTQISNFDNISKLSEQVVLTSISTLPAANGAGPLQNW

[3] = target: T3, Orexin/Hypocretin receptor type 1 (Homo sapiens) (UniProt O43613); experiment: Agonist activity at OX1R (unknown origin) expressed in CHO cells at 10 uM by cell-based calcium assay relative to Orexin A; format: functional
T3 sequence (whole entry): T1 sequence (O43613 whole entry)

Orexin receptor type 2 = target: T4, Orexin receptor type 2 (Homo sapiens, UniProt O43614); experiment: Agonist activity at OX2R (unknown origin) expressed in CHO cells by cell-based calcium assay; format: functional
T4 sequence (O43614 whole entry): T2 sequence (whole entry)

[4] = target: T1, Orexin/Hypocretin receptor type 1; experiment: Antagonist activity at human OX1R expressed in CHO-K1 cells assessed as inhibition of orexin-A-induced increase in calcium mobilization preincubated for 15 mins followed orexin-A stimulation by Fura-2-AM dye based fluorescence assay
Homo sapiens = species: Homo sapiens; experiment: Selectivity ratio of EC50 for agonist activity at human OX1R expressed in CHO-K1 cells to EC50 for agonist activity at human OX2R expressed in CHO-K1 cells; format: cell-based

Compound | EC50 [1] | Efficacy [2] | Efficacy [3] | EC50 (Orexin receptor type 2) | Ki [4] | Ratio EC50 (Homo sapiens)
COc1ccc(C(=O)Nc2cccc([C@]3(C)O[C@H]4CO[C@@H]5N4[C@H]3O[C@@]5(C)c3cccc(NC(=O)c4ccc(OC)cc4)c3)c2)cc1 | – | – | – | – | 0.00217 µM | –
COC(=O)N1CCC[C@H](NS(C)(=O)=O)[C@@H]1CO[C@H]1CC[C@@H](c2ccccc2)CC1 | – | – | – | – | – | > 5000
COc1ccc(C(=O)Nc2cccc([C@]3(C)O[C@@H]4CO[C@H]5N4[C@@H]3O[C@@]5(C)c3cccc(NC(=O)c4ccc(OC)cc4)c3)c2)cc1 | – | – | – | – | 0.00523 µM | –

Second part, led by results:

EC50 [1] | Efficacy [2] | Efficacy [3] | EC50 (Orexin receptor type 2) | Ki [4] | Compound | Ratio EC50 (Homo sapiens)
> 10 µM | < 5% | < 5% | > 10 µM | – | COc1ccc(-c2cccc(C(=O)N(C)C)c2)cc1S(=O)(=O)Nc1ccc2ccc(NC(=O)c3ccccc3)cc2c1 | –
> 10 µM | – | – | > 10 µM | – | COc1ccccc1C(=O)N(C)c1cccc2ccc(NS(=O)(=O)c3cc(-c4cccc(C(=O)N(C)C)c4)ccc3OC)cc12 | –
> 10 µM | < 5% | < 5% | > 10 µM | – | COc1ccc(-c2cccc(C(=O)N(C)C)c2)cc1S(=O)(=O)Nc1ccc2ccc(N(C)C(=O)c3ccccc3)cc2c1 | –
